Where two headings read alike, the source gives them in different places.
Experiments:
[1] = tested on: DU145 cells; test: MTT cell viability assay, DU145; format: cell-based; settings: Homo sapiens, DU-145; supplement csv, unit inferred; read-out: DU145 IC50
Experimental: (§1) The cell lines DU145 (HTB-81, human prostate carcinoma), PC3 (CRL-1435, human prostate adenocarcinoma), MCF7 (HTB-22, human breast adenocarcinoma), MDA-MB231 (HTB-26, human breast adenocarcinoma), and HCT116 (CCL-247, human colorectal carcinoma) were obtained from ATCC (American Type Culture Collection, Manassas, VA, USA); WH1 human fibroblasts were kindly provided by Dr. Guven.[51] All the cells were maintained under standard culture conditions (37 °C; 5% CO2) in the RMPI1640 medium (PC3, MCF7, and MDA-MB231 cells), while DU145 and HCT116 cells were in the DMEM and Iscove’s medium (WH1 cells) supplemented with 10% fetal calf serum, 1% glutamine, and 1% antibiotics mixture; for HCT116 and DU145 cells, 1% sodium pyruvate and 1% non-essential amino acids were also added to the culture medium.
(§2) The 3-(4,5-dimethylthiazol-2-yl)-2,5-diphenyltetrazolium bromide (MTT) assay was performed on all the cell lines tested as previously described[52] with minor modifications. Briefly, according to the growth profiles previously defined for each cell line, adequate numbers of cells were plated in each well of a 96-well plate in 0.1 mL of complete culture medium. Cells were allowed to attach for 24 h before the treatment at 37 °C for 72 h with the compounds at concentrations ranging between 0.1 and 75 μM, bringing the final volume to 0.2 mL/well. Each experiment included eight replications per concentration tested; control samples were run with 0.2% DMSO. At the end of the incubation period, MTT (0.05 mL of a 2 mg/mL stock solution in PBS) was added to each well for 3 h at 37 °C. Cell supernatants were then carefully removed, the blue formazan crystals formed through MTT reduction by metabolically active cells were dissolved in 0.120 mL of DMSO, and the corresponding optical densities were measured at 570 nm using a Universal Microplate Reader EL800 (Bio-Tek, Winooski, VT).
(§3) IC50 values were estimated from the resulting concentration–response curves by nonlinear regression analysis using GraphPad Prism software, v. 5.0 (GraphPad, San Diego, CA, USA). Differences between IC50 values were evaluated statistically by analysis of variance with a Bonferroni post-test for multiple comparisons.

[2] = tested on: HBL100 cells; test: MTT cell viability assay, non-tumorigenic HBL100; format: cell-based; settings: Homo sapiens, HBL-100, 72 h treatment
Experimental: as §2, §3

[3] = tested on: PC3 cells; test: MTT cell viability assay, PC3; format: cell-based; settings: Homo sapiens, PC-3; supplement csv, unit inferred; read-out: PC3 IC50
Experimental: as §1, §2, §3

[4] = tested on: MCF7/ADR cells; test: MTT cell viability assay, DOX-resistant MCF7/ADR; format: cell-based, human; settings: for IC50: Homo sapiens, NCI/ADR-RES, 72 h treatment, MTT; for R.I. (resistance index): MCF7/ADR vs MCF7
Experimental: as §2, §3

[5] = tested on: MCF7 cells; test: MTT cell viability assay, MCF7; format: cell-based; settings: Homo sapiens
Experimental: as §1, §2, §3

[6] = tested on: HCT116 cells; test: MTT cell viability assay, HCT116; format: cell-based; settings: Homo sapiens, HCT-116; supplement csv, unit inferred; read-out: HCT116 IC50
Experimental: as §1, §2, §3

[7] = tested on: WH1 human fibroblasts; test: MTT cell viability assay, WH1 fibroblasts; format: cell-based; settings: Fibroblast, 72 h treatment
Experimental: as §1, §2, §3

[8] = tested on: MDA-MB231 cells; test: MTT cell viability assay, MDA-MB231; format: cell-based; settings: Homo sapiens, MDA-MB-231; supplement csv, unit inferred; read-out: MDA-MB231 IC50
Experimental: as §1, §2, §3

[9] = 72 h treatment, MTT, read-out: IC50 MCF7

Compound | melting point | IC50 [1] | IC50 [2] | IC50 [3] | IC50 [4] | R.I. (resistance index) [4] | IC50 [5, 9] | IC50 [6] | IC50 [7] | IC50 [8] | IC50 ([5]; supplement csv, unit inferred, read-out: MCF7 IC50)
O=C(O)c1cn(C2CC2)c2cc(N3CCN(c4ccc([N+](=O)[O-])c(C(F)(F)F)c4)CC3)c(F)cc2c1=O [Compound 1a, 1-Cyclopropyl-6-fluoro-7-(4-(4-nitro-3-(trifluoromethyl)phenyl)piperazin-1-yl)-4-oxo-1,4-dihydroquinoline-3-carboxylic Acid] | 296 to 298 °C | 7.78 ± 1.52 µM | 7.79 ± 0.66 µM | 6.45 ± 0.19 µM | 8.72 ± 1.25 µM | 1.0 | 8.8 ± 1.59 µM | 9.67 ± 0.36 µM | 9.17 ± 0.6 µM | 8.06 ± 1.05 µM | –
CCn1cc(C(=O)O)c(=O)c2cc(F)c(N3CCN(c4ccc([N+](=O)[O-])c(C(F)(F)F)c4)CC3)cc21 [Compound 1b, 1-Ethyl-6-fluoro-7-(4-(4-nitro-3-(trifluoromethyl)phenyl)piperazin-1-yl)-4-oxo-1,4-dihydroquinoline-3-carboxylic Acid] | 310 to 312 °C | 2.85 ± 0.01 µM | 9.26 ± 1.79 µM | 3.07 ± 0.64 µM | 5.63 µM | 1.1 | – | 10.4 ± 1.5 µM | 5.35 ± 1.14 µM | 6.93 ± 0.85 µM | 5.24 ± 0.7 µM
COC(=O)c1cn(C2CC2)c2cc(N3CCN(c4ccc([N+](=O)[O-])c(C(F)(F)F)c4)CC3)c(F)cc2c1=O [Compound 3a, Methyl 1-Cyclopropyl-6-fluoro-7-(4-(4-nitro-3-(trifluoromethyl)phenyl)piperazin-1-yl)-4-oxo-1,4-dihydroquinoline-3-carboxylate] | 265 to 267 °C | 5.67 ± 0.06 µM | 10.6 ± 2.4 µM | 15.9 ± 0.5 µM | 19.6 ± 3.2 µM | 1.3 | 15.5 ± 1.2 µM | 6.93 ± 1.53 µM | 8.38 ± 1.2 µM | 10.7 ± 1.9 µM | –
CCn1cc(C(=O)OC)c(=O)c2cc(F)c(N3CCN(c4ccc([N+](=O)[O-])c(C(F)(F)F)c4)CC3)cc21 [Compound 3b, Methyl 1-Ethyl-6-fluoro-7-(4-(4-nitro-3-(trifluoromethyl)phenyl)piperazin-1-yl)-4-oxo-1,4-dihydroquinoline-3-carboxylate] | 236 to 238 °C | 6.06 ± 0.51 µM | 12 ± 1.7 µM | 15.3 ± 1.2 µM | 15 ± 2.1 µM | 1.3 | 11.7 ± 1.4 µM | 9.73 ± 2.25 µM | 9 ± 1.91 µM | 10.2 ± 3.1 µM | –
COC(=O)c1cn(C2CC2)c2cc(N3CCN(CCNc4ccc([N+](=O)[O-])c(C(F)(F)F)c4)CC3)c(F)cc2c1=O [Compound 6a, Methyl 1-Cyclopropyl-6-fluoro-7-(4-(2-((4-nitro-3-(trifluoromethyl)phenyl)amino)ethyl)piperazin-1-yl)-4-oxo-1,4-dihydroquinoline-3-carboxylate] | 231 to 233 °C | 4.8 ± 0.96 µM | 9.76 ± 0.9 µM | 6.72 ± 0.35 µM | 15.1 ± 2.3 µM | 0.9 | 16.8 ± 2.4 µM | 15.7 ± 2 µM | 10.5 ± 2.5 µM | 16.1 ± 2.1 µM | –
COC(=O)c1cn(C2CC2)c2cc(N3CCN(CCCNc4ccc([N+](=O)[O-])c(C(F)(F)F)c4)CC3)c(F)cc2c1=O [Compound 6b, Methyl 1-Cyclopropyl-6-fluoro-7-(4-(3-((4-nitro-3-(trifluoromethyl)phenyl)amino)propyl)piperazin-1-yl)-4-oxo-1,4-dihydroquinoline-3-carboxylate] | 202 to 204 °C | 14 ± 1.4 µM | 12.2 ± 2 µM | 3.17 ± 0.47 µM | 18.76 ± 0.1 µM | 1.5 | 12.1 ± 1.1 µM | 5.21 ± 0.73 µM | 13.2 ± 3.4 µM | 3.76 ± 0.94 µM | –

From publication PMC8389907 (Journal of Medicinal Chemistry, 2021)
